In ChEMBL document CHEMBL4732094, “Synthesis of some new benzoxazole derivatives and investigation of their anticancer activities” (Eur J Med Chem, 2021):

Experiments:
[1] = Selectivity index, ratio of IC50 for cytotoxicity against mouse NIH3T3 cells to IC50 for cytotoxicity against human HT-29 cells; type: toxicity, cell-based; conditions: NIH3T3 cells versus HT-29 cells, read-out: Ratio IC50
[2] = system: HT-29; experiment: Cytotoxicity against human HT-29 cells assessed as cell viability measured after 24 hrs by MTT assay; type: functional, cell-based; conditions: HT-29, 24 h
[3] = system: C6; experiment: Cytotoxicity against rat C6 cells assessed as cell viability measured after 24 hrs by MTT assay; type: functional, cell-based; conditions: C6, 24 h
[4] = system: HepG2; experiment: Cytotoxicity against human HepG2 cells assessed as cell viability measured after 24 hrs by MTT assay; type: functional, cell-based; conditions: HepG2, 24 h
[5] = system: HT-29; experiment: Induction of apoptosis in human HT-29 cells assessed as viable cells at IC50 concentration measured after 24 hrs by Annexin V-FITC/PI staining based flow cytometry method (reference value: 90.3%); type: functional
[6] = system: A549; experiment: Cytotoxicity against human A549 cells assessed as cell viability measured after 24 hrs by MTT assay; type: functional, cell-based; conditions: A549, 24 h
[7] = system: HT-29; experiment: Induction of apoptosis in human HT-29 cells assessed as early apoptotic cells at IC50 concentration measured after 24 hrs by Annexin V-FITC/PI staining based flow cytometry method (reference value: 1.1%); type: functional
[8] = Selectivity index, ratio of IC50 for cytotoxicity against mouse NIH3T3 cells to IC50 for cytotoxicity against rat C6 cells; type: toxicity, cell-based; conditions: NIH3T3 cells versus C6 cells, read-out: Ratio IC50
[9] = Selectivity index, ratio of IC50 for cytotoxicity against mouse NIH3T3 cells to IC50 for cytotoxicity against human A549 cells; type: toxicity, cell-based; conditions: NIH3T3 cells versus A549 cells, read-out: Ratio IC50
[10] = system: C6; experiment: Induction of apoptosis in rat C6 cells assessed as apoptotic cells at IC50 concentration measured after 24 hrs by Annexin V-FITC/PI staining based flow cytometry method relative to control; type: functional
[11] = system: HT-29; experiment: Inhibition of DNA synthesis in human HT-29 cells assessed as reduction in cell proliferation measured after 24 to 48 hrs by BrdU proliferation assay; type: functional, cell-based; conditions: time 24-48 hrs
[12] = Selectivity index, ratio of IC50 for cytotoxicity against mouse NIH3T3 cells to IC50 for cytotoxicity against human HepG2 cells; type: toxicity, cell-based; conditions: NIH3T3 cells versus HepG2 cells, read-out: Ratio IC50
[13] = system: C6; experiment: Inhibition of DNA synthesis in rat C6 cells assessed as reduction in cell proliferation measured after 24 to 48 hrs by BrdU proliferation assay; type: functional, cell-based; conditions: time 24-48 hrs
[14] = system: HT-29; experiment: Induction of apoptosis in human HT-29 cells assessed as late apoptotic cells at IC50 concentration measured after 24 hrs by Annexin V-FITC/PI staining based flow cytometry method (reference value: 1.5%); type: functional
[15] = Selectivity index, ratio of IC50 for cytotoxicity against mouse NIH3T3 cells to IC50 for cytotoxicity against human MCF7 cells; type: toxicity, cell-based; conditions: NIH3T3 cells versus MCF7 cells, read-out: Ratio IC50
[16] = system: MCF7; experiment: Cytotoxicity against human MCF7 cells assessed as cell viability measured after 24 hrs by MTT assay; type: functional, cell-based; conditions: MCF7, 24 h
[17] = system: HT-29; experiment: Induction of apoptosis in human HT-29 cells assessed as necrotic cells at IC50 concentration measured after 24 hrs by Annexin V-FITC/PI staining based flow cytometry method (reference value: 7.2%); type: functional
[18] = system: NIH3T3; experiment: Cytotoxicity against mouse NIH3T3 cells assessed as cell viability measured after 24 hrs by MTT assay; type: cell-based; conditions: NIH3T3, 24 h
[19] = system: HepG2; experiment: Induction of apoptosis in human HepG2 cells assessed as late apoptotic cells at IC50 concentration measured after 24 hrs by Annexin V-FITC/PI staining based flow cytometry method (reference value: 8.7%); type: functional
[20] = system: HepG2; experiment: Induction of apoptosis in human HepG2 cells assessed as necrotic cells at IC50 concentration measured after 24 hrs by Annexin V-FITC/PI staining based flow cytometry method (reference value: 4.6%); type: functional
[21] = system: HepG2; experiment: Induction of apoptosis in human HepG2 cells assessed as early apoptotic cells at IC50 concentration measured after 24 hrs by Annexin V-FITC/PI staining based flow cytometry method (reference value: 0.9%); type: functional
[22] = system: HepG2; experiment: Induction of apoptosis in human HepG2 cells assessed as viable cells at IC50 concentration measured after 24 hrs by Annexin V-FITC/PI staining based flow cytometry method (reference value: 87.8%); type: functional
[23] = system: MCF7; experiment: Induction of apoptosis in human MCF7 cells assessed as viable cells at IC50 concentration measured after 24 hrs by Annexin V-FITC/PI staining based flow cytometry method (reference value: 94.9%); type: functional
[24] = system: MCF7; experiment: Induction of apoptosis in human MCF7 cells assessed as necrotic cells at IC50 concentration measured after 24 hrs by Annexin V-FITC/PI staining based flow cytometry method (reference value: 1%); type: functional
[25] = system: HepG2; experiment: Inhibition of DNA synthesis in human HepG2 cells assessed as reduction in cell proliferation measured after 24 to 48 hrs by BrdU proliferation assay; type: functional, cell-based; conditions: time 24-48 hrs
[26] = system: MCF7; experiment: Inhibition of DNA synthesis in human MCF7 cells assessed as reduction in cell proliferation measured after 24 to 48 hrs by BrdU proliferation assay; type: functional, cell-based; conditions: time 24-48 hrs
[27] = system: MCF7; experiment: Induction of apoptosis in human MCF7 cells assessed as early apoptotic cells at IC50 concentration measured after 24 hrs by Annexin V-FITC/PI staining based flow cytometry method (reference value: 2.2%); type: functional
[28] = system: MCF7; experiment: Induction of apoptosis in human MCF7 cells assessed as late apoptotic cells at IC50 concentration measured after 24 hrs by Annexin V-FITC/PI staining based flow cytometry method (reference value: 1.8%); type: functional
[29] = Drug metabolism in human HepG2 cells assessed as amine metabolite formation after 24 hrs by LCMS-IT-TOF analysis; type: ADME, cell-based; conditions: hepg2, 24 h
[30] = Drug metabolism in human HepG2 cells assessed as oxidative dehalogenation after 24 hrs by LCMS-IT-TOF analysis; type: ADME, cell-based; conditions: hepg2, 24 h

SMILES	selectivity ratio [1]	IC50 [2] [µM]	IC50 [3] [nM]	IC50 [4] [nM]	Activity [5] [%]	IC50 [6] [µM]	Activity [7] [%]	selectivity ratio [8]	selectivity ratio [9]	Activity [10] [%]	inhibition [11]	selectivity ratio [12]	inhibition [13]	Activity [14] [%]	selectivity ratio [15]	IC50 [16] [µM]	Activity [17] [%]	IC50 [18] [µM]	Activity [19] [%]	Activity [20] [%]	further results
Cc1ccc2oc(-c3ccc(NC(=O)CN4CCN(CCN(C)C)CC4)cc3)nc2c1	16.2	1.79	1630	1270	76	3.66	15	17.8	7.9	19.3	Dose-dependent effect	22.8	Dose-dependent effect	8.5	1.22	23.7	0.4	28.9	–	–	–
COc1cccc2c1C(=O)c1c(O)c3c(c(O)c1C2=O)C[C@@](O)(C(=O)CO)C[C@@H]3O[C@H]1C[C@H](N)[C@H](O)[C@H](C)O1 [DOXORUBICIN]	–	16.3	25600	18000	88	10.8	1.9	–	–	35.7	Dose-dependent effect	–	Dose-dependent effect	6.6	–	–	3.5	–	21.4	4.2	Activity [21]: 0.9%; Activity [22]: 73.6%; Activity [23]: 42.9%; Activity [24]: 6.8%; inhibition [25]: Dose-dependent effect; inhibition [26]: Dose-dependent effect; Activity [27]: 1%; Activity [28]: 49.3%
CN(C)CCN1CCN(CC(=O)Nc2ccc(-c3nc4cc(Cl)ccc4o3)cc2)CC1	6.41	4.47	1030	2640	–	7.1	–	27.8	4.04	10.7	–	10.9	Dose-dependent effect	–	3.62	7.92	–	28.7	10.3	0.8	Activity [21]: 3.7%; Activity [22]: 85.2%; Drug metabolism [29]: Metabolite_Detected; inhibition [25]: Dose-dependent effect; Drug metabolism [30]: Metabolite_Detected
CN(C)CCCN1CCN(CC(=O)Nc2ccc(-c3nc4cc(Cl)ccc4o3)cc2)CC1	15.7	1.64	910	1250	85.5	4.32	6.5	28.3	5.96	13.6	Dose-dependent effect	20.6	Dose-dependent effect	7.4	15.6	1.65	0.6	25.8	27.9	1.1	Activity [21]: 8.3%; Activity [22]: 62.6%; Activity [23]: 25.9%; Drug metabolism [29]: Metabolite_Detected; Activity [24]: 3.9%; inhibition [25]: Dose-dependent effect; inhibition [26]: Dose-dependent effect; Activity [27]: 23.7%; Activity [28]: 46.4%; Drug metabolism [30]: Metabolite_Detected
